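Assay format: 96-well plates, 48-hour exposure. GI50 is the concentration that inhibits growth by half.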 The source made the active and inactive calls. Rule as the data show it: active = GI50 up to about 1.1 µM and inactive = higher.
Columns and labels:
Experiment in all cases: NCI-60 cell line screen, 48 h
SK-MEL-28 = system: SK-MEL-28
OVCAR-4 = system: OVCAR-4
HT-29 = system: HT-29
U-251 = system: U-251
CAKI-1 = system: CAKI-1
SF-295 = system: SF-295
HCT-15 = system: HCT-15
RXF 393 = system: RXF 393
SK-MEL-2 = system: SK-MEL-2
NCI-H522 = system: NCI-H522
EKVX = system: EKVX
HCC 2998 = system: HCC 2998
SK-MEL-5 = system: SK-MEL-5
UO-31 = system: UO-31
NCI-H226 = system: NCI-H226
MDA-N = system: MDA-N
SNB-19 = system: SNB-19
Hs-578T = system: Hs-578T
IGROV-1 = system: IGROV-1
TK-10 = system: TK-10
Malme-3M = system: Malme-3M
A549 = system: A549
HL-60 = system: HL-60
ACHN = system: ACHN
OVCAR-8 = system: OVCAR-8
BT-549 = system: BT-549
SF-268 = system: SF-268
DU-145 = system: DU-145
SN12C = system: SN12C
COLO 205 = system: COLO 205
M14 = system: M14
OVCAR-5 = system: OVCAR-5
786-0 = system: 786-0
LOX IMVI = system: LOX IMVI
HOP-92 = system: HOP-92
RPMI-8226 = system: RPMI-8226
HCT-116 = system: HCT-116
MDA-MB-231 = system: MDA-MB-231
SNB-75 = system: SNB-75
KM12 = system: KM12
HOP-62 = system: HOP-62
SW-620 = system: SW-620
MDA-MB-435 = system: MDA-MB-435
OVCAR-3 = system: OVCAR-3
NCI-H23 = system: NCI-H23
T47D = system: T47D
PC-3 = system: PC-3
CCRF-CEM = system: CCRF-CEM
SR = system: SR
UACC-257 = system: UACC-257
SF-539 = system: SF-539
K562 = system: K562
SK-OV-3 = system: SK-OV-3
MOLT-4 = system: MOLT-4
NCI/ADR-RES = system: NCI/ADR-RES
MCF7 = system: MCF7
A498 = system: A498
NCI-H460 = system: NCI-H460
UACC-62 = system: UACC-62

For COC(=O)CCC(C)[C@H]1CCC2C3C(C[C@H](OC(C)=O)[C@@]21C)[C@@]1(C)CCC2(C[C@H]1C[C@H]3OC(C)=O)OOC1(CCCCC1)OO2 (some centres undefined), the GI50 (SK-MEL-28) was > 100 µM (inactive), the GI50 (OVCAR-4) was 15.8 µM (inactive) and the GI50 (HT-29) was 41.9 µM (inactive). The GI50 (U-251) was 12.7 µM (inactive), the GI50 (CAKI-1) was 41.1 µM (inactive) and the GI50 (SF-295) was 20.7 µM (inactive). For the same molecule, the GI50 (HCT-15) was 21.8 µM, the GI50 (RXF 393) was 38.7 µM (inactive) and the GI50 (SK-MEL-2) was 52.7 µM (inactive). The GI50 (NCI-H522) was 9.33 µM (inactive), the GI50 (EKVX) was 4.04 µM (inactive) and the GI50 (HCC 2998) was 28.3 µM (inactive). The GI50 (SK-MEL-5) was 19.4 µM (inactive), the GI50 (UO-31) was 5.73 µM (inactive) and the GI50 (NCI-H226) was 17.7 µM (inactive). For the same molecule, the GI50 (MDA-N) was 33.9 µM (inactive), the GI50 (SNB-19) was 42.2 µM (inactive) and the GI50 (Hs-578T) was 12 µM (inactive). For the same molecule, the GI50 (IGROV-1) was 5.2 µM (inactive), the GI50 (TK-10) was > 100 µM (inactive) and the GI50 (Malme-3M) was 36.4 µM (inactive). For the same molecule, the GI50 (A549) was 11.3 µM (inactive), the GI50 (HL-60) was 7.26 µM (inactive) and the GI50 (ACHN) was 11.2 µM (inactive). The GI50 (OVCAR-8) was 17.6 µM (inactive), the GI50 (BT-549) was 40.6 µM (inactive) and the GI50 (SF-268) was 25 µM (inactive). For the same molecule, the GI50 (DU-145) was 41.5 µM (inactive), the GI50 (SN12C) was 36.6 µM (inactive) and the GI50 (COLO 205) was 24.7 µM (inactive). The GI50 (M14) was 15.5 µM (inactive), the GI50 (OVCAR-5) was 43.5 µM (inactive) and the GI50 (786-0) was 15.1 µM (inactive). For the same molecule, the GI50 (LOX IMVI) was 11.5 µM (inactive), the GI50 (HOP-92) was 1.02 µM (active) and the GI50 (RPMI-8226) was 1.99 µM (inactive). The GI50 (HCT-116) was 5.58 µM (inactive), the GI50 (MDA-MB-231) was 18 µM (inactive) and the GI50 (SNB-75) was 21.2 µM (inactive). The GI50 (KM12) was 23.6 µM (inactive), the GI50 (HOP-62) was 2.99 µM (inactive) and the GI50 (SW-620) was 33.3 µM (inactive). For the same molecule, the GI50 (MDA-MB-435) was 36.2 µM (inactive), the GI50 (OVCAR-3) was 40.5 µM (inactive) and the GI50 (NCI-H23) was 12.7 µM (inactive). The GI50 (T47D) was 65.9 µM (inactive), the GI50 (PC-3) was 5.97 µM (inactive) and the GI50 (CCRF-CEM) was 4.27 µM (inactive). For the same molecule, the GI50 (SR) was 4.26 µM (inactive), the GI50 (UACC-257) was 19.1 µM (inactive) and the GI50 (SF-539) was 60.1 µM (inactive). The GI50 (K562) was 10.3 µM (inactive), the GI50 (SK-OV-3) was 54.5 µM (inactive) and the GI50 (MOLT-4) was 17.2 µM (inactive). For the same molecule, the GI50 (NCI/ADR-RES) was 49.2 µM (inactive), the GI50 (MCF7) was 22.3 µM (inactive) and the GI50 (A498) was > 100 µM (inactive). For the same molecule, the GI50 (NCI-H460) was 10.8 µM (inactive).

For CC(C)(C)OC(=O)N1C(C2=COc3ccccc3O2)=COc2ccccc21, the GI50 (SK-MEL-28) was 30.1 µM (inactive), the GI50 (OVCAR-4) was 36.8 µM (inactive) and the GI50 (HT-29) was 32 µM (inactive). The GI50 (U-251) was 32.1 µM (inactive), the GI50 (CAKI-1) was 38 µM (inactive) and the GI50 (SF-295) was 26.9 µM (inactive). For the same molecule, the GI50 (HCT-15) was 31.2 µM, the GI50 (RXF 393) was 5.18 µM (inactive) and the GI50 (SK-MEL-2) was 22 µM (inactive). For the same molecule, the GI50 (NCI-H522) was 16 µM (inactive), the GI50 (EKVX) was 16.8 µM (inactive) and the GI50 (HCC 2998) was 16.2 µM (inactive). The GI50 (SK-MEL-5) was 19.1 µM (inactive), the GI50 (UO-31) was 30 µM (inactive) and the GI50 (UACC-62) was 15.7 µM (inactive). For the same molecule, the GI50 (NCI-H226) was 23.8 µM (inactive), the GI50 (MDA-N) was 32.4 µM (inactive) and the GI50 (SNB-19) was 34.9 µM (inactive). The GI50 (Hs-578T) was 41.5 µM (inactive), the GI50 (IGROV-1) was 9.75 µM (inactive) and the GI50 (TK-10) was 33.6 µM (inactive). For the same molecule, the GI50 (Malme-3M) was 22.9 µM (inactive), the GI50 (A549) was 32.7 µM (inactive) and the GI50 (HL-60) was 19 µM (inactive). For the same molecule, the GI50 (ACHN) was 24.7 µM (inactive), the GI50 (OVCAR-8) was 28.3 µM (inactive) and the GI50 (BT-549) was 24.8 µM (inactive). The GI50 (SF-268) was 21.3 µM (inactive), the GI50 (DU-145) was 28 µM (inactive) and the GI50 (SN12C) was 26.6 µM (inactive). The GI50 (COLO 205) was 19.4 µM (inactive), the GI50 (M14) was 27.7 µM (inactive) and the GI50 (OVCAR-5) was 33.3 µM (inactive). The GI50 (786-0) was 38.1 µM (inactive), the GI50 (LOX IMVI) was 17.5 µM (inactive) and the GI50 (HOP-92) was 19.6 µM (inactive). The GI50 (RPMI-8226) was 13.9 µM (inactive), the GI50 (HCT-116) was 23.9 µM (inactive) and the GI50 (MDA-MB-231) was 23.1 µM (inactive). The GI50 (SNB-75) was 35 µM (inactive), the GI50 (KM12) was 29.9 µM (inactive) and the GI50 (HOP-62) was 15.5 µM (inactive). For the same molecule, the GI50 (SW-620) was 24.3 µM (inactive), the GI50 (MDA-MB-435) was 31.3 µM (inactive) and the GI50 (OVCAR-3) was 21.1 µM (inactive). The GI50 (NCI-H23) was 29.7 µM (inactive), the GI50 (T47D) was 11.5 µM (inactive) and the GI50 (PC-3) was 32.8 µM (inactive). For the same molecule, the GI50 (SR) was 21.1 µM (inactive), the GI50 (UACC-257) was 23.9 µM (inactive) and the GI50 (SF-539) was 19.3 µM (inactive). The GI50 (K562) was 21.5 µM (inactive), the GI50 (SK-OV-3) was 29 µM (inactive) and the GI50 (MOLT-4) was 17.1 µM (inactive). For the same molecule, the GI50 (NCI/ADR-RES) was 27.1 µM (inactive), the GI50 (MCF7) was 24.2 µM (inactive) and the GI50 (A498) was 17.1 µM (inactive). The GI50 (NCI-H460) was 28.9 µM (inactive).

For CC(C)=CCC/C(=C/CC/C(=C\CCc1ccoc1)C(=O)O)C(=O)O, the GI50 (SK-MEL-28) was > 100 µM (inactive), the GI50 (OVCAR-4) was > 100 µM (inactive) and the GI50 (HT-29) was > 100 µM (inactive). For the same molecule, the GI50 (U-251) was > 100 µM (inactive), the GI50 (CAKI-1) was > 100 µM (inactive) and the GI50 (SF-295) was > 100 µM (inactive). For the same molecule, the GI50 (HCT-15) was greater than 100 µM, the GI50 (RXF 393) was > 100 µM (inactive) and the GI50 (SK-MEL-2) was > 100 µM (inactive). For the same molecule, the GI50 (NCI-H522) was > 100 µM (inactive), the GI50 (EKVX) was > 100 µM (inactive) and the GI50 (HCC 2998) was > 100 µM (inactive). The GI50 (SK-MEL-5) was > 100 µM (inactive), the GI50 (UO-31) was > 100 µM (inactive) and the GI50 (UACC-62) was > 100 µM (inactive). For the same molecule, the GI50 (NCI-H226) was > 100 µM (inactive), the GI50 (MDA-N) was > 100 µM (inactive) and the GI50 (SNB-19) was > 100 µM (inactive). The GI50 (Hs-578T) was > 100 µM (inactive), the GI50 (IGROV-1) was > 100 µM (inactive) and the GI50 (TK-10) was > 100 µM (inactive). For the same molecule, the GI50 (Malme-3M) was > 100 µM (inactive), the GI50 (A549) was > 100 µM (inactive) and the GI50 (HL-60) was > 100 µM (inactive). The GI50 (ACHN) was > 100 µM (inactive), the GI50 (OVCAR-8) was > 100 µM (inactive) and the GI50 (BT-549) was > 100 µM (inactive). For the same molecule, the GI50 (SF-268) was > 100 µM (inactive), the GI50 (DU-145) was > 100 µM (inactive) and the GI50 (SN12C) was > 100 µM (inactive). The GI50 (COLO 205) was > 100 µM (inactive), the GI50 (M14) was > 100 µM (inactive) and the GI50 (OVCAR-5) was > 100 µM (inactive). The GI50 (786-0) was > 100 µM (inactive), the GI50 (LOX IMVI) was > 100 µM (inactive) and the GI50 (HOP-92) was > 100 µM (inactive). For the same molecule, the GI50 (RPMI-8226) was > 100 µM (inactive), the GI50 (HCT-116) was > 100 µM (inactive) and the GI50 (MDA-MB-231) was > 100 µM (inactive). The GI50 (SNB-75) was > 100 µM (inactive), the GI50 (KM12) was > 100 µM (inactive) and the GI50 (HOP-62) was > 100 µM (inactive). For the same molecule, the GI50 (SW-620) was > 100 µM (inactive), the GI50 (MDA-MB-435) was > 100 µM (inactive) and the GI50 (OVCAR-3) was > 100 µM (inactive). For the same molecule, the GI50 (NCI-H23) was > 100 µM (inactive), the GI50 (T47D) was > 100 µM (inactive) and the GI50 (PC-3) was > 100 µM (inactive). For the same molecule, the GI50 (CCRF-CEM) was > 100 µM (inactive), the GI50 (SR) was > 10 µM (inactive) and the GI50 (UACC-257) was > 100 µM (inactive). The GI50 (SF-539) was > 100 µM (inactive), the GI50 (K562) was > 100 µM (inactive) and the GI50 (SK-OV-3) was > 100 µM (inactive). For the same molecule, the GI50 (MOLT-4) was > 100 µM (inactive), the GI50 (NCI/ADR-RES) was > 100 µM (inactive) and the GI50 (MCF7) was > 100 µM (inactive). For the same molecule, the GI50 (A498) was > 100 µM (inactive).
